Measurements reported in patent US12275731B2, “Azaindole inhibitors of wild-type and mutant forms of LRRK2” (DANA-FARBER CANCER INSTITUTE, INC., priority 2018, dated 2025).

Experiments:
Assay in all cases: KinomeScan profiling
Assay type in all cases: binding
IRAK1 = target: T1, IRAK1 (Homo sapiens, UniProt P51617); conditions: IRAK1, 1 μM; read-out: % control
T1 construct: purchased KinomeScan®
Method in brief: (§1)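 Percent-of-control values derive from RLU, calculated as (test − positive)/(negative − positive) × 100, where DMSO defines 100% and a positive control compound defines 0%. Each compound was tested at 1 μM in the 468-kinase panel; sub-35% readings indicate activity.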

ASK2 = target: T2, ASK2 (Homo sapiens, UniProt O95382); conditions: ASK2, 1 μM; read-out: % control
T2 construct: purchased KinomeScan®
T2 sequence (O95382 1-1288): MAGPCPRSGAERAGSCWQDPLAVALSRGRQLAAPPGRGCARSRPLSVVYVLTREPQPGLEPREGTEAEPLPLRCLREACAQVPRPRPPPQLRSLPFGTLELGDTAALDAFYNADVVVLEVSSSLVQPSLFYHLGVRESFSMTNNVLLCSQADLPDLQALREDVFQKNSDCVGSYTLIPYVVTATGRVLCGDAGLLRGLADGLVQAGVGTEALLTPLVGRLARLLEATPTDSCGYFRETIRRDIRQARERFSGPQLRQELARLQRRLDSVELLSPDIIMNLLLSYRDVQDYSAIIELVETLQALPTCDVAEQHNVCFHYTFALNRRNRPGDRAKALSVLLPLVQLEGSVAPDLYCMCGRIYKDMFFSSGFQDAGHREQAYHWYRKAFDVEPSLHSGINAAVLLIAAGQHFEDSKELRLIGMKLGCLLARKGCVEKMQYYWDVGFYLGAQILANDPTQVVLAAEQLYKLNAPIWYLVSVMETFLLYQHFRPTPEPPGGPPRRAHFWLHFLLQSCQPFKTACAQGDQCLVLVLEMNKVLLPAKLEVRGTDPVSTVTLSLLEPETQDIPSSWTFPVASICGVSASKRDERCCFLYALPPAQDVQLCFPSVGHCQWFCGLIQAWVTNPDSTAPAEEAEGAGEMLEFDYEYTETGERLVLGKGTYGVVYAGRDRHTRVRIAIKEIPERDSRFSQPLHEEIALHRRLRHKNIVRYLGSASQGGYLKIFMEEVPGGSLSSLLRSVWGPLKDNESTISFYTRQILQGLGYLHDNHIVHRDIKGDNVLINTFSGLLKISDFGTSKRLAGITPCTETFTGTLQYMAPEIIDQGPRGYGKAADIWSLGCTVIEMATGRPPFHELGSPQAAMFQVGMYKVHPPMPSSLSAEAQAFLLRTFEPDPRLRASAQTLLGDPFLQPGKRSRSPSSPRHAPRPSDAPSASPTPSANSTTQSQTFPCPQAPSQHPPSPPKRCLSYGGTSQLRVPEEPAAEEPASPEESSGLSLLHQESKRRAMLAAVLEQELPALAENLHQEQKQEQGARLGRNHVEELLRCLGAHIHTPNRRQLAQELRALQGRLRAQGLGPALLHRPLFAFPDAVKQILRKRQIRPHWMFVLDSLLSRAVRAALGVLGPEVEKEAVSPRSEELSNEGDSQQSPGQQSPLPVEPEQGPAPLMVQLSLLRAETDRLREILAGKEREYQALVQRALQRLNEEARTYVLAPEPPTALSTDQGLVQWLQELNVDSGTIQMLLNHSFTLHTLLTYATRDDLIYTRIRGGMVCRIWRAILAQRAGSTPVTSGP
Method in brief: as §1

STK35 = target: T3, STK35 (Homo sapiens, UniProt Q8TDR2); conditions: STK35, 1 μM; read-out: % control
T3 construct: purchased KinomeScan® (panel service)
T3 sequence (Q8TDR2 whole entry): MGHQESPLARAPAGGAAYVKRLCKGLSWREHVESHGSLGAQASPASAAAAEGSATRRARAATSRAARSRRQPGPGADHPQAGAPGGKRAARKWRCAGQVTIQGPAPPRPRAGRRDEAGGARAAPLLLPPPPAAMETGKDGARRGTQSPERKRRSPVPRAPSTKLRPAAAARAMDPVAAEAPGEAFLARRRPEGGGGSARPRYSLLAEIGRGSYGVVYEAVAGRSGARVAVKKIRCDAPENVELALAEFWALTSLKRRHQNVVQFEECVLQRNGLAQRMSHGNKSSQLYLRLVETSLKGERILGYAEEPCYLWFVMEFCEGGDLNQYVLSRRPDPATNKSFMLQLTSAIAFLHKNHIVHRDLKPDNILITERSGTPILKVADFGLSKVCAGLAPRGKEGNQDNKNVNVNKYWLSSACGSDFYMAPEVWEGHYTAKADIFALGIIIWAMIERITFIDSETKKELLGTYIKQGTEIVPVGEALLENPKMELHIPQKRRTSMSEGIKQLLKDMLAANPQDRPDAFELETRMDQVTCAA
Method in brief: as §1

ULK2 = target: T4, ULK2 (Homo sapiens, UniProt Q8IYT8); conditions: ULK2, 1 μM; read-out: % control
T4 sequence (Q8IYT8 1-1036): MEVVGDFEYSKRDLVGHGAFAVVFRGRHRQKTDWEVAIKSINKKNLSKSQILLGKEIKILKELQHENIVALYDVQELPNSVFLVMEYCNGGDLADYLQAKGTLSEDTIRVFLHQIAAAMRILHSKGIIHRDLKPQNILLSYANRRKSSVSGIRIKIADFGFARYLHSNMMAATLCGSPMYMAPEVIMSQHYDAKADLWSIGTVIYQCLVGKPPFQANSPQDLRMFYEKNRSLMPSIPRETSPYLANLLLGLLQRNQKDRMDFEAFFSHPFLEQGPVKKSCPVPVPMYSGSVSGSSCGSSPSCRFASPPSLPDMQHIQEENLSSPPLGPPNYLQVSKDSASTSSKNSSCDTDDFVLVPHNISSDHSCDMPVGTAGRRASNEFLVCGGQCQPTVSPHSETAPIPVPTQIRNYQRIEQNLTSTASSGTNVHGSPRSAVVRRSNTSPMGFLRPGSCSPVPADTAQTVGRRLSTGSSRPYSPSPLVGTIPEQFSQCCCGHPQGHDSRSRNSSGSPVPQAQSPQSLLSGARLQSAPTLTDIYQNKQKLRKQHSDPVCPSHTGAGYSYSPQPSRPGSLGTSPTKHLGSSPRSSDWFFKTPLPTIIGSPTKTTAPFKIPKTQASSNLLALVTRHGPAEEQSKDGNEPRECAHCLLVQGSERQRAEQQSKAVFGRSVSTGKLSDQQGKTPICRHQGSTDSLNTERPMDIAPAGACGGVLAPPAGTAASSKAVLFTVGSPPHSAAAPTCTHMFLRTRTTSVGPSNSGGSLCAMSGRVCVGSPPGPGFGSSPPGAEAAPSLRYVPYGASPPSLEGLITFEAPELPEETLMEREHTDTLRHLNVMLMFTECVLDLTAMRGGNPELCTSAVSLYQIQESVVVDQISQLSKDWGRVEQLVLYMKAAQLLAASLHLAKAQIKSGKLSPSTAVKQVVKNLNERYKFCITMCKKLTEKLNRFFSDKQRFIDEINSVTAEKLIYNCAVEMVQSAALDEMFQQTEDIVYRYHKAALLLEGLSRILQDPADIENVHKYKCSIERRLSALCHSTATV
Method in brief: as §1

T1 sequence (P51617 whole entry): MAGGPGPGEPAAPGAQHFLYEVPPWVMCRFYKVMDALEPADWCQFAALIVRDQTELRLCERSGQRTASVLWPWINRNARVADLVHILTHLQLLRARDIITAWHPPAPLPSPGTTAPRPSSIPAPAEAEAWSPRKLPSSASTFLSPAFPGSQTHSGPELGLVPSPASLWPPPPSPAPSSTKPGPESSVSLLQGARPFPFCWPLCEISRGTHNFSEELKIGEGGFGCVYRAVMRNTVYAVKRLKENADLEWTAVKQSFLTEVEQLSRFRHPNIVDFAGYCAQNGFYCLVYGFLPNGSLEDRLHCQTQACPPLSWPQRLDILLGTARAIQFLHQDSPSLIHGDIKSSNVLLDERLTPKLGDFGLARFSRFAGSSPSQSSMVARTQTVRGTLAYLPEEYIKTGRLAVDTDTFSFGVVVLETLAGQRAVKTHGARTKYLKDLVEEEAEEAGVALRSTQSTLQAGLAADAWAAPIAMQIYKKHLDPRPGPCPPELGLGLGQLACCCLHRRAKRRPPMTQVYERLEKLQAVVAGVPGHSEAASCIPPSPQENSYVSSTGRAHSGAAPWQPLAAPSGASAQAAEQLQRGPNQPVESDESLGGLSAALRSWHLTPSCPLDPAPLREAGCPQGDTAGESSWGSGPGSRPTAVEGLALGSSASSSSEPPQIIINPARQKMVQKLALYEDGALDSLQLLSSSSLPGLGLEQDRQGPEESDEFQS

SMILES	remaining binding at 1 µM (IRAK1) [%]	remaining binding at 1 µM (ASK2) [%]	remaining binding at 1 µM (STK35) [%]	remaining binding at 1 µM (ULK2) [%]
CNc1c(-c2cnn([C@H]3CCN(C(C)=O)C[C@@H]3F)c2)cnc2[nH]cc(Cl)c12 [Compound 77, 1-((3S,4S)-4-(4-(3-chloro-4-(methylamino)-1H-pyrrolo[2,3-b]pyridin-5-yl)-1H-pyrazol-1-yl)-3-fluoropiperidin-1-yl)ethan-1-one]	33	30	63	15
O=C(c1ccc(-c2cnc3[nH]cc(Cl)c3c2NC2CCCC2)cc1)N1CCC(N2CCOCC2)CC1 [Compound 101, (4-(3-chloro-4-(cyclopentylamino)-1H-pyrrolo[2,3-b]pyridin-5-yl)phenyl)(4-morpholinopiperidin-1-yl)methanone]	100	100	99	98
CNc1c(-c2ccc(C(=O)N3CCC(N4CCOCC4)CC3)cc2)cnc2[nH]cc(Cl)c12 [Compound 96, (4-(3-chloro-4-(methylamino)-1H-pyrrolo[2,3-b]pyridin-5-yl)phenyl)(4-morpholinopiperidin-1-yl)methanone]	41	42	50	8.7
